Results as given in publication PMC6001238, “Iterative Chemical Engineering of Vancomycin Leads to Novel Vancomycin Analogs With a High in Vitro Therapeutic Index” (Frontiers in Microbiology, 2018).
≈ marks a conversion by molar mass, not a printed value.

Assays:
[1] = test system: Clostridium difficile ATJ ribotype 014/20; experiment: MIC, plate drop assay, C. difficile ATJ ribotype 014/20; format: cell-based; conditions: C. difficile ATJ ribotype 014/20
Method: (§1) Bacterial lawns of both C. difficile strains were prepared by adding 0.5 mL overnight culture to 8 mL sloppy BHI agar (0.4% agar) supplemented with 1.5 g/L CaCl2⋅2H2O and 81.2 g/L MgCl2⋅6H2O, and pouring the mixture into Petri plates. A twofold dilution series of the selected vancomycin analogs, vancomycin ([…]) and daptomycin (25 μM) was spotted (10 μL) on the bacterial lawn. Spots were air-dried and the plates were incubated overnight at 37°C in an anaerobic cabinet. Ultrapure water was included as negative control. The assay was performed in triplicate. Inhibition was observed by cleared spots.

E. faecalis VRE 53 = experiment: MIC, broth microdilution, vancomycin-resistant E. faecalis VRE 53 (VanA); format: cell-based, Enterococcus faecalis; conditions: for MIC: Enterococcus faecalis VRE 53 (vancomycin-resistant), read-out: MIC; for MIC-fold improvement vs. vancomycin: VRE 53, ratio of MIC of vancomycin and MIC of analogue
Method in brief: (§2)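 Inhibitory concentrations were read by the CLSI broth microdilution procedure, with water and sterile broth as controls. One experiment added vancomycin (10 μM final) together with each analogue or reference antibiotic.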

E. faecalis VSE 1 = experiment: MIC, broth microdilution, vancomycin-sensitive E. faecalis (VSE 1); format: cell-based, Enterococcus faecalis; conditions: for MIC: Enterococcus faecalis VSE 1 (vancomycin-sensitive), read-out: MIC; for MIC-fold improvement vs. vancomycin: VSE 1, ratio of MIC of vancomycin and MIC of analogue
Method in brief: as §2

[2] = test system: Clostridium difficile AIU ribotype 027; experiment: MIC, plate drop assay, C. difficile AIU ribotype 027; format: cell-based; conditions: C. difficile AIU ribotype 027
Method: as §1

E. faecalis VRE 37 = experiment: MIC, broth microdilution, vancomycin-resistant E. faecalis VRE 37 (VanA); format: cell-based, Enterococcus faecalis; conditions: for MIC: Enterococcus faecalis VRE 37 (vancomycin-resistant), read-out: MIC; for MIC-fold improvement vs. vancomycin: VRE 37, ratio of MIC of vancomycin and MIC of analogue
Method in brief: as §2

E. faecalis VRE 6 = experiment: MIC, broth microdilution, vancomycin-resistant E. faecalis VRE 6 (VanA); format: cell-based, Enterococcus faecalis; conditions: for MIC: Enterococcus faecalis VRE 6 (vancomycin-resistant), read-out: MIC; for MIC-fold improvement vs. vancomycin: VRE 6, ratio of MIC of vancomycin and MIC of analogue
Method in brief: as §2

[3] = test system: human cervix carcinoma (HeLa) cells; experiment: Cytostatic activity, HeLa cell proliferation; format: cell-based; conditions: mean ± SD of three experiments; highest concentration tested 250 µM; 4 days; read-out: Toxicity (IC50) HeLa
Method in brief: (§3)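 Coulter counter cell counts after 37°C culture with compound; IC50 = concentration giving 50% growth inhibition vs negative control. Incubation: L1210 2 d, CEM 3 d, HeLa 4 d. Suspension density before mixing with an equal volume of dilution: 300,000–500,000 cells/mL.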

S. aureus VISA/HIP5827 = experiment: MIC, broth microdilution, vancomycin-intermediate S. aureus VISA HIP5827; format: cell-based, Staphylococcus aureus; conditions: for MIC: Staphylococcus aureus VISA/HIP5827, read-out: MIC; for MIC-fold improvement vs. vancomycin: VISA/HIP5827, ratio of MIC of vancomycin and MIC of analogue
Method in brief: as §2

S. aureus VRSA = experiment: MIC, broth microdilution, vancomycin-resistant S. aureus (VRSA); format: cell-based, Staphylococcus aureus; conditions: for MIC: Staphylococcus aureus VRSA, read-out: MIC; for MIC-fold improvement vs. vancomycin: VRSA, ratio of MIC of vancomycin and MIC of analogue
Method in brief: as §2

[4] = test system: human T-lymphocyte (CEM) cells; experiment: Cytostatic activity, CEM cell proliferation; format: cell-based; conditions: mean ± SD of three experiments; highest concentration tested 250 µM; 3 days; read-out: Toxicity (IC50) CEM
Method in brief: as §3

[5] = test system: L1210, CEM and HeLa cell lines; experiment: Cytostatic activity, average or summary over L1210, CEM and HeLa; format: cell-based; conditions: average of L1210, CEM and HeLa; read-out: Toxicity (IC50) Average
Method in brief: as §3

E. faecalis VRE 29 = experiment: MIC, broth microdilution, vancomycin-resistant E. faecalis VRE 29 (VanA); format: cell-based, Enterococcus faecalis; conditions: for MIC: Enterococcus faecalis VRE 29 (vancomycin-resistant), read-out: MIC; for MIC-fold improvement vs. vancomycin: VRE 29, ratio of MIC of vancomycin and MIC of analogue
Method in brief: as §2

[6] = test system: S. aureus VSSA (ATCC 6538); experiment: MIC, broth microdilution, vancomycin-sensitive S. aureus (VSSA/MSSA, ATCC 6538); format: cell-based, Staphylococcus aureus; conditions: for MIC: Staphylococcus aureus VSSA, read-out: MIC; for MIC-fold improvement vs. vancomycin: VSSA, ratio of MIC of vancomycin and MIC of analogue
Method in brief: as §2

[7] = test system: Murine leukemia (L1210) cells; experiment: Cytostatic activity, L1210 cell proliferation; format: cell-based; conditions: mean ± SD of three experiments; highest concentration tested 250 µM; 2 days; read-out: Toxicity (IC50) L1210
Method in brief: as §3

MRSA KS1 = experiment: MIC, broth microdilution, MRSA KS1; format: cell-based, Staphylococcus aureus
Method in brief: as §2

MRSA KS6 = experiment: MIC, broth microdilution, MRSA KS6; format: cell-based, Staphylococcus aureus
Method in brief: as §2

MRSA KS2 = experiment: MIC, broth microdilution, MRSA KS2; format: cell-based, Staphylococcus aureus
Method in brief: as §2

MRSA KS89 = experiment: MIC, broth microdilution, MRSA KS89; format: cell-based, Staphylococcus aureus
Method in brief: as §2

Structure (SMILES) | MIC (E. faecalis VRE 53) [µM] | MIC-fold improvement vs. vancomycin (E. faecalis VRE 53) | MIC (E. faecalis VSE 1) [µM] | MIC-fold improvement vs. vancomycin (E. faecalis VSE 1) | MIC (E. faecalis VRE 37) [µM] | MIC-fold improvement vs. vancomycin (E. faecalis VRE 37) | MIC (E. faecalis VRE 6) [µM] | MIC-fold improvement vs. vancomycin (E. faecalis VRE 6) | IC50 [3] [µM] | MIC (S. aureus VISA/HIP5827) [µM] | MIC-fold improvement vs. vancomycin (S. aureus VISA/HIP5827) | MIC (S. aureus VRSA) [µM] | MIC-fold improvement vs. vancomycin (S. aureus VRSA) | IC50 [4] [µM] | IC50 [5] [µM] | MIC (E. faecalis VRE 29) [µM] | MIC-fold improvement vs. vancomycin (E. faecalis VRE 29) | MIC [6] [µM] | MIC-fold improvement vs. vancomycin [6] | IC50 [7] [µM] | further results
CN[C@H](CC(C)C)C(=O)N[C@H]1C(=O)N[C@@H](CC(N)=O)C(=O)N[C@H]2C(=O)N[C@H]3C(=O)N[C@H](C(=O)N[C@H](C(=O)NCC(=O)Nc4ccc5cc6ccccc6cc5c4)c4cc(O)cc(O)c4-c4cc3ccc4O)[C@H](O)c3ccc(c(Cl)c3)Oc3cc2cc(c3O[C@@H]2O[C@H](CO)[C@@H](O)[C@H](O)[C@H]2O[C@H]2C[C@](C)(N)[C@H](O)[C@H](C)O2)Oc2ccc(cc2Cl)[C@H]1O [Vanc-59] | 12.5 (≈ 21 µg/mL) | 32 | 0.20 (≈ 0.336 µg/mL) | 8 | 1.56 (≈ 2.62 µg/mL) | 256 | 1.56 (≈ 2.62 µg/mL) | 128 | 88 ± 37 | 0.39 (≈ 0.656 µg/mL) | 16 | 0.20 (≈ 0.336 µg/mL) | 512 | 23 ± 6 | 96 | 3.13 (≈ 5.26 µg/mL) | 128 | 0.39 (≈ 0.656 µg/mL) | 2 | 177 ± 90 | MIC-fold improvement vs. vancomycin [1]: 22; MIC-fold improvement vs. vancomycin [2]: 29
CN[C@H](CC(C)C)C(=O)N[C@H]1C(=O)N[C@@H](CC(N)=O)C(=O)N[C@H]2C(=O)N[C@H]3C(=O)N[C@H](C(=O)N[C@H](C(=O)NCC(=O)Nc4ccc(OC)c(OC)c4)c4cc(O)cc(O)c4-c4cc3ccc4O)[C@H](O)c3ccc(c(Cl)c3)Oc3cc2cc(c3O[C@@H]2O[C@H](CO)[C@@H](O)[C@H](O)[C@H]2O[C@H]2C[C@](C)(N)[C@H](O)[C@H](C)O2)Oc2ccc(cc2Cl)[C@H]1O [Vanc-7] | 12.5 (≈ 20.5 µg/mL) | 32 | 0.78 (≈ 1.28 µg/mL) | 2 | 12.5 (≈ 20.5 µg/mL) | 64 | 12.5 (≈ 20.5 µg/mL) | 16 | > 250 | 0.78 (≈ 1.28 µg/mL) | 8 | 12.5 (≈ 20.5 µg/mL) | 8 | > 250 | > 250 | 12.5 (≈ 20.5 µg/mL) | 32 | 0.78 (≈ 1.28 µg/mL) | 1 | > 250 | MIC-fold improvement vs. vancomycin (MRSA KS1; MRSA KS1, ratio of MIC of vancomycin and MIC of analogue): 1; MIC (MRSA KS1; Staphylococcus aureus MRSA KS1, read-out: MIC): 0.78 µM (≈ 1.28 µg/mL); MIC-fold improvement vs. vancomycin (MRSA KS6; MRSA KS6, ratio of MIC of vancomycin and MIC of analogue): 1; MIC (MRSA KS6; Staphylococcus aureus MRSA KS6, read-out: MIC): 0.78 µM (≈ 1.28 µg/mL); MIC-fold improvement vs. vancomycin (MRSA KS2; MRSA KS2, ratio of MIC of vancomycin and MIC of analogue): 2; MIC (MRSA KS2; Staphylococcus aureus MRSA KS2, read-out: MIC): 0.39 µM (≈ 0.64 µg/mL); MIC-fold improvement vs. vancomycin (MRSA KS89; MRSA KS8, ratio of MIC of vancomycin and MIC of analogue): 1; MIC (MRSA KS89; Staphylococcus aureus MRSA KS8, read-out: MIC): 0.78 µM (≈ 1.28 µg/mL)
